Experimental data published in patent US20240271100A1, “IN VITRO DIFFERENTIATION OF PANCREATIC ENDOCRINE CELLS” (VERTEX PHARMACEUTICALS INCORPORATED, priority 2020, published 2024).

Columns and labels:
[1] = molecular target: EZH2 (Homo sapiens, UniProt Q15910); conditions: cited from earlier work
[2] = tested on: primitive gut tube cells; assay: FGF2 applied during S3 of the Version A differentiation protocol; flow cytometry of the resulting endocrine cell population; assay type: cell-based, human
Protocol: An exemplary differentiation protocol, Version A, according to the present disclosure and its modified version, which added use of FGF2 at Stage 3, were tested for differentiating human stem cells into mature β cells capable of releasing insulin in response to glucose challenge in vitro.
(§1) For initial steps, basically, human pluripotent stem cell line SEM01 was thawed from a 3D suspension bank and seeded at a density of 1M cells/ml into 500 ml spinner flasks (Corning; 89,089-814) with 300 ml Nutristem media (Biological Industries 05-100-1A) supplemented with […] Y27632 (ab120129) and 100 ng/ml FGF2 (Peprotech RUO: 100-18B-1MG). Spinner flasks were placed on a magnetic stir plate (Chemglass) rotating at 60 r.p.m. in a humidified 37 C incubator set at 5% CO2. Cells were passaged every 72 hours. After 3 passages, cells were seeded at 0.5M cells/ml density and fed every 24 hours until 72 hours. Then, differentiation was initiated in spinner flasks using the Version A differentiation protocol which begins on day 1 of Stage 1 (S1, day 1). FGF2 was added to Stage 3, Stage 4, or Stage 5 as detailed below in the modified protocol.
(§2) Version A protocol is a 6-stage stepwise protocol. With Version A protocol, stem cells were treated with reagents in the following consecutive orders during the six stages: Stage 1 (S1), Activin-A for 3 days and also CHIR99021 for the first 24 hr; Stage 2 (S2), KGF for 3 days; Stage 3 (S3), KGF, PDBU, Sant-1, retinoic acid (RA), Activin A, and Thiazovivin for 2 days, and also DMH-1 for the first day; Stage 4 (S4), KGF, Sant-1, Thiazovivin, Activin A, and RA for 6 days; Stage 5 (S5), XXI, Alk5i, GC-1, LDN-193189, Thiazovivin, Staurosporine, and DZNEP for 7 days, and also RA, Sant-1, and Betacellulin for the first 2 days.
In one experiment, on protocol day 7 (S3, day 1; S3dl), 10 mL of cell clusters were taken from the spinner flask and aliquoted into 2 wells of ultra-low attachment 6-well plates (Corning 29443) (5 mL/well). The plate was placed on an orbital shaker set to 130 rpm in the incubator. Cells received either control Version A conditions as described above or were supplemented with FGF2 (100 ng/ml) on protocol day 7 and day 8 only (S3d1 and S3d2).
(§3) Upon completion of Stage 5, on Stage 6 day 1 (S6dl), the cells were collected, dispersed, and analyzed by flow cytometry. Briefly, islets were dispersed with TrypLE Express (Life Technologies; 12,604,013) at 37 C, fixed with 4% PFA for 20 mins at 4 C, blocked by 1 hour in FACS buffer (5% Donkey Serum and 0.1% Saponin in PBS) at room temperature, stained with NKX6.1 (DSHB FSSA12 1:100) and ISL1 (ab178400 1:500) antibodies diluted in FACS buffer overnight at 4 C. The next day, cells were washed twice with FACS buffer, stained with secondary antibody: anti-Rabbit AlexaFluor-488 (A31573 1:1000) and anti-Mouse Alexa Fluro-647 (A31571 1:1000) diluted in FACS buffer, and washed twice with FACS buffer. Stained cells were measured using an Accuri 6 flow cytometer (BD Biosciences) and analyzed using Accuri software.

[3] = tested on: PDX1-positive pancreatic progenitor cells; assay: FGF2 applied during S4 of the Version A differentiation protocol; flow cytometry of the resulting endocrine cell population; assay type: cell-based, human
Protocol: as §1, §2, §3
In one experiment, Version A protocol, as described in Example 1, was compared with a modified protocol in which 100 ng/mL FGF2 was added on day 1, 3, and 5 of S4 to the culture medium. As described above, on S6dl, the cells were collected, dispersed, and analyzed by flow cytometry.

[4] = tested on: PDX1-positive, NKX6.1-positive pancreatic progenitor cells; assay: FGF2 applied at S5 day 1 and day 2 of the Version A differentiation protocol; flow cytometry on S6d1; assay type: cell-based, human; conditions: FGF2 100 ng/mL at S5 day 1 and day 2; FIGS. 8A-8B
Protocol: as §1, §2
Upon completion of Stage 5, on Stage 6 day 1 (S6dl), the cells were collected, dispersed, and analyzed by flow cytometry. […] Stained cells were measured using an Accuri 6 flow cytometer (BD Biosciences) and analyzed using Accuri software.
In one experiment, Version A protocol, as described in Example 1, was compared with a modified protocol in which 100 ng/mL FGF2 was added on protocol day 15 and day 16 (Stage 5 day 1 and day 2). As described above, on S6dl, the cells were collected, dispersed, and analyzed by flow cytometry.

[5] = tested on: Stage 6 cells (NKX6.1-positive, ISL1-positive endocrine cells); assay: FGF2 applied at S6 of the Version A or Version B differentiation protocol; cell composition by flow cytometry; assay type: cell-based, human
Protocol: In one experiment, the effect of FGF2 treatment at S6 was examined by comparing Stage 6 cells generated with Version A protocol, as described in Example 1, or with Version A protocol plus FGF2 treatment (100 ng/mL) at S6 for the first 3 days.
In another experiment, the effect of FGF2 treatment at S6 was examined by comparing S6 cells generated under four differentiation conditions: Version A protocol; Version A protocol + FGF2 treatment (100 ng/mL for the first 12 days) at S6; Version B protocol; Version B protocol+ FGF2 treatment at S6. Version B protocol shares similar reagents and treatment timing with […], in Version B protocol, one difference from Version A protocols is that the cells were supplemented with 500 nM PDBU from day 5 of Stage 4 (S4d5) to day 2 of […] (S5d2). […]

[6] = FGF2 treatment at S3, by the end of S5, FIGS. 8A-8B
[7] = FGF2 100 ng/mL at S4 versus Version A without FGF2, FIG. 2B
[8] = FGF2 treatment at S4, FIGS. 8A-8B
[9] = FGF2 treatment at S6, summary FIG. 8A
[10] = Version B protocol, FGF2 at S6, by S6d8 and S6d12, FIGS. 5A-C

EZH2, sequence (Q15910 whole entry, species assumed): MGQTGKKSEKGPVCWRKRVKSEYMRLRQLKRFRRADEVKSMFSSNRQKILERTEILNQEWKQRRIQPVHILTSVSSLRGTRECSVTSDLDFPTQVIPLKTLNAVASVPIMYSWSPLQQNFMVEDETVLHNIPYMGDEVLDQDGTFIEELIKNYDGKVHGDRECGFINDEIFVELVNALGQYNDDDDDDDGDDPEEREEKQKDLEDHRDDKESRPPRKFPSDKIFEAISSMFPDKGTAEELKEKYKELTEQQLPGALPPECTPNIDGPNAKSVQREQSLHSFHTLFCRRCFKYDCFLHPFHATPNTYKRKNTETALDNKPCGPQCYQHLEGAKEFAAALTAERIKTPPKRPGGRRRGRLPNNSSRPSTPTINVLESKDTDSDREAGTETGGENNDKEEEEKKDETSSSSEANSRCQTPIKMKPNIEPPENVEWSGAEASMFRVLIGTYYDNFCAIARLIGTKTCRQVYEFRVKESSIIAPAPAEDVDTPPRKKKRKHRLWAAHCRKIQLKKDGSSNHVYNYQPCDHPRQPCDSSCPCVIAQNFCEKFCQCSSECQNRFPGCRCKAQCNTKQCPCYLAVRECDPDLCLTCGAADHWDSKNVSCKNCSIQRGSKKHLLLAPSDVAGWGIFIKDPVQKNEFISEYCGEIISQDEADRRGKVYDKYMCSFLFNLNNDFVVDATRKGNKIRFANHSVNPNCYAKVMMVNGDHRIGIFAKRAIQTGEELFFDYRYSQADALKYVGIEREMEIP
EZH2, sequence (O75530 whole entry partner, species assumed): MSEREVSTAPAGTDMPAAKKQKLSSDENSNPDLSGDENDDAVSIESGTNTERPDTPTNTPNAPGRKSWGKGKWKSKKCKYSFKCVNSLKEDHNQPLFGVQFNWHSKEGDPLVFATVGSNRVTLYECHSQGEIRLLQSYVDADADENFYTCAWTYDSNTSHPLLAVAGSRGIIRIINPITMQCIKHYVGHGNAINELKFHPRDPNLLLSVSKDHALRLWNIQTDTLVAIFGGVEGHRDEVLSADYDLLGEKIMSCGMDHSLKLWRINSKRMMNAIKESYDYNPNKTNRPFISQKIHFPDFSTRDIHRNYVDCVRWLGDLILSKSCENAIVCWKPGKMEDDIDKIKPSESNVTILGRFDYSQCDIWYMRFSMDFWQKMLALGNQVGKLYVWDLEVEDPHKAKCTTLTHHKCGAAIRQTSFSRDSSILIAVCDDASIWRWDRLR
EZH2, sequence (Q15022 whole entry partner, species assumed): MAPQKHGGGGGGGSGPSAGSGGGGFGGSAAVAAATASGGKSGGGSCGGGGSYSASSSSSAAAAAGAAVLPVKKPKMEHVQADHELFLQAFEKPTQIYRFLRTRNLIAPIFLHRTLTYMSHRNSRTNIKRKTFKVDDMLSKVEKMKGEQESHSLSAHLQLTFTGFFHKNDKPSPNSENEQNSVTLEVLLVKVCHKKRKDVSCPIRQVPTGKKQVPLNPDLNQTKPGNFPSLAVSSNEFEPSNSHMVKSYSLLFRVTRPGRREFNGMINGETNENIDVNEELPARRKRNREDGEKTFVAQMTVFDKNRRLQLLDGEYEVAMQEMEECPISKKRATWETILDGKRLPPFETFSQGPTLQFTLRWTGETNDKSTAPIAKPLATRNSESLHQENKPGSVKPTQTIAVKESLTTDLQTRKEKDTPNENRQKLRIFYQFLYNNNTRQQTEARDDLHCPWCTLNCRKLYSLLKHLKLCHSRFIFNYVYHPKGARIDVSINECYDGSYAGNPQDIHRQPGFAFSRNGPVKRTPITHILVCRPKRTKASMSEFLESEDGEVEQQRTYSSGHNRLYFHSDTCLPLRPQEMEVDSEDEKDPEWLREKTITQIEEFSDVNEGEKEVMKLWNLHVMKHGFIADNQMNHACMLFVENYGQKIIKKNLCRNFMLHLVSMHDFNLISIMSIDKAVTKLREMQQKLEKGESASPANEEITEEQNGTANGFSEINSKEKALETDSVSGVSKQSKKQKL

CC[C@H](C)n1cc(C)c2c(C(=O)NCc3c(C)cc(C)[nH]c3=O)cc(-c3ccc(N4CCNCC4)nc3)cc21 [GSK126]
selectivity over EZH1 ([1]; EZH2 versus EZH1): 150 fold

FGF2: growth factor from the FGF family; human FGF2 polypeptide sequence (GenBank Accession NP 001997); Peprotech RUO: 100-18B-1MG
percentage of SC-α cells that express ISL1, but do not express NKX6.1 ([2]; FGF2 100 ng/ml on S3d1 and S3d2, Version A, flow cytometry on S6d1, without FGF2 9.7%): 35.1% | percentage of SC-enterochromaffin cells (SC-EC) that express NKX6 but not ISL1.1 ([2]; FGF2 100 ng/ml on S3d1 and S3d2, Version A, flow cytometry on S6d1, without FGF2 31.7%): 13.1% | percentage of SC-β cells that express both NKX6.1 and ISL1 ([2]; FGF2 100 ng/ml on S3d1 and S3d2, Version A, flow cytometry on S6d1, without FGF2 49.3%): 36.6% | change in percentage of SC-EC cells [2, 6]: decreased | change in percentage of SC-β cells [2, 6]: decreased | change in percentage of SC-α cells ([2]; FGF2 treatment at S3, cells generated by the end of S5, FIGS. 8A-8B): increased | change in percentage of glucagon-positive, ARX-positive cells [3, 7]: increased | change in percentage of total ARX-positive cells [3, 7]: increased | increase of the percentage of somatostatin-positive SC-δ cells [3, 7]: about two | percentage of NKX6.1-negative, ISL1-positive SC-α cells ([3]; FGF2 100 ng/mL on day 1, 3 and 5 of S4, Version A, flow cytometry on S6d1, without FGF2 5.6%): 12.0% | percentage of NKX6.1-positive, ISL1-positive SC-β cells ([3]; FGF2 100 ng/mL on day 1, 3 and 5 of S4, Version A, flow cytometry on S6d1, without FGF2 around 43%): around 55% | change in percentage of SC-EC cells [3, 8]: decreased | change in percentage of SC-α cells [3, 8]: increase | change in percentage of SC-β cells [3, 8]: increase | change in percentage of SC-δ cells [3, 8]: increase | change in percentage of SOX9-positive cells [3, 8]: decreased | percentage of VMAT1-positive cells ([3]; FGF2 treatment at S4, without FGF2 about 60%, FIG. 3B): about 40% | percentage of SOX9-positive, NKX6.1-positive cells ([3]; FGF2 treatment at S4, without FGF2 around 12.5%): around 5% | percentage of total SOX9-positive cells ([3]; FGF2 treatment at S4, without FGF2 around 20%, FIG. 3A): around 14% | percentage of NKX6.1-positive, ISL1-negative cells ([3]; FGF2 treatment at S4, without FGF2 around 40%, FIG. 3B): around 20% | change in SC-EC cells [4]: decrease | change in SC-α cells [4]: increase | change in percentage of SC-β cells [4]: no significant change | change in percentage of Ki67-positive cells ([5]; FGF2 at S6, both Version A and Version B protocols): increased | percentage of non-proliferating SOX9-positive cells (SOX9-positive, Ki67-negative) ([5]; FGF2 at S6, by S6d12, both Version A and Version B protocols, without FGF2 15%-25%, FIG. 6A): about 65% | percentage of proliferating SOX9-positive cells (SOX9-positive, Ki67-positive) ([5]; FGF2 at S6, by S6d12, both Version A and Version B protocols, without FGF2 close to zero, FIG. 6B): 15%-20% | change in percentage of proliferating non-SOX9 cells (SOX9-negative, Ki67-positive) ([5]; FGF2 treatment at S6, FIG. 6C): small change | effect on SC-EC cells, as measured by expression of VMAT1, or positivity for NKX6.1 and negativity for ISL1 ([5]; FGF2 treatment at S6, S6d4, S6d8, S6d12, FIGS. 7A-7B): small effect | change in percentage of SC-α cells [5, 9]: increase | change in percentage of SC-β cells [5, 9]: increase | change in percentage of SC-δ cells [5, 9]: increase | percentage of NKX6.1-positive, ISL1-positive SC-β cells ([5]; Version A plus FGF2 100 ng/mL at S6 for the first 3 days, flow cytometry, without FGF2 18.5%): 36.9% | change in percentage of SC-β cell ([5]; Version A protocol, FGF2 100 ng/mL for the first 12 days at S6, by S6d8 and S6d12): relatively unchanged | change in SC-δ cell percentage [5, 10]: increased | change in percentage of SC-α cells [5, 10]: reduced | change in percentage of SC-β cells [5, 10]: reduced | change in SOX9-positive cells ([5]; addition of FGF2 at S6, both Version A and Version B protocols): significantly increased

CCCc1cc(C)[nH]c(=O)c1CNC(=O)c1cc(-c2ccc(N3CCN(C(C)C)CC3)nc2)cc2c1cnn2C(C)C [UNC1999]
selectivity compared with GSK126 [1]: less selective
